Reference: US10111896B2, “Composition comprising a combination of DNA methylation inhibitor and a vitamin D receptor agonist for the treatment of drug resistant cancer or for the prevention of tumor relapse” (INSERM (Institut National de la Sante et de la Recherche …, priority 2014, dated 2018)

Tests used:
VDR promoter [1] = test: VDR promoter methylation analysis (methylation specific PCR) in primary AML samples; type: cell-based, human; conditions: 5-AZA 1 μM, 96 hours, vs not treated
Experimental: (§1) (A) Schematic representation of the VDR promoter. 5′-CpG-3′ islands present in VDR promoter (region ranging from −1035 to −75+ bp relative to the exon 1a transcriptional start codon) represented by dashes. […] Cell viability was evaluated by ATP assay. Results are presented as mean±SEM (ns not significant, *p<0.05, **p<0.01, ***p<0.001). […] HL60 were mock-treated or treated with 5-AZA (5 μM) or Vitamin D ([…]; as positive control) for 6 hours. (E) VDR or VDR-target genes (CAMP and CYP24A1) expression was evaluated by qPCR. Results are presented as mean±SEM. […] Primary cells (n=3 patients) were mock-treated or treated with 5-AZA (5 μM) or inecalcitol (INEC; […]) or both for 6 hours. VDR or VDR-target genes (CAMP and CYP24A1) expression was evaluated by qPCR. Results are presented as mean±SEM.

VDR promoter [2] = test: Methylation-sensitive high resolution melting (MS-HRM) analysis on THP-1 cells; type: cell-based, human; conditions: 5-AZA 1 μM, 96 hours
Experimental: as §1

[3] = system: wild-type MLL-ENL transformed cells; test: Cell viability by ATP assay, wild-type MLL-ENL transformed cells; type: cell-based, mouse; conditions: growing concentrations, 72 h
Experimental: as §1
(§2) Cells were seeded into 96-well plates, and then returned to the 37° C. incubator after the addition of different reactives or vehicle controls DMSO and ethanol if not otherwise stated. Celltiter Glo reagents (Promega) were added after 48 to 96 hours to determine cell viability by measuring ATP levels.

[4] = system: VDR-/- MLL-ENL transformed cells; test: Cell viability by ATP assay, VDR-/- MLL-ENL transformed cells; type: cell-based, mouse; conditions: growing concentrations, 72 h
Experimental: as §1, §2

[5] = system: VDR and VDR targeted genes (CAMP and CYP24A1) in HL60 cells; conditions: 6 hours
Experimental: as §1

[6] = system: VDR-target genes (CAMP and CYP24A1) in primary cells from AML patients; test: qPCR of VDR-target genes in leukemic cells from AML patients; type: cell-based, human; conditions: primary cells from AML patients (n=3); 5-AZA 5 μM, 6 hours
Experimental: as §1

U937 cells = test: Myeloid differentiation, CD11b and CD14 expression by flow cytometry in AML cell lines; type: cell-based, human; conditions: 5-AZA 5 μM, INEC 10 nM or both, 72 hours
Experimental: (A) Structural formulas of 1-25 dihydroxyvitamin D3 (VD) and VDR agonist Inecalcitol. http://www.chemblink.com/products/163217-09-2.htm. (B-D) Hypomethylating agents synergize with VDR agonists to promote myeloid differentiation and VDR activity. (B) U937 cells were mock-treated or treated with 5-AZA (5 μM), INEC (10 nM) or both for 72 hours. CD11b and CD14 expression was evaluated by flow cytometry. Results are presented in fold increase compared to vehicle Histograms are mean±SEM (n≥10; *p<0.05, **p<0.01, ***p<0.001). (C) HL60 cells were mock-treated or treated with 5-AZA (5 μM), with Vitamin D (300 nM) or INEC (10 nM) for 16 hours. Granocyte differentiation genes (PRTN3 and NE) and monocyte differentiation genes (TREML2 and SERPINB8) were accessed by qPCR. Results are presented as mean±SEM. (D) U937 cells were mock-treated or treated with 5-AZA (5 μM), INEC (10 nM) or both for 16 hours. VDR activation was evaluated by immunoblot using anti-phospho-VDR specific antibodies. VDR antibodies were used to control protein loading. (E-G) Combined Hypomethylating agents/VDR agonists therapy impairs tumor growth. (E) HL60 cells were mock-treated or treated with 5-AZA (5 μM), with INEC (10 nM) or both for 16 hours. […] (F) Expression of cell cycle regulator genes p15, p21 and p27 was evaluated by qPCR. […] The p-value was determined using the log-rank test. […]

U937 cells xenograft = test: Subcutaneous U937 tumor xenograft in athymic Nude mice; type: in vivo, mouse; conditions: 5-AZA 5 mg/kg i.p. five injections, INEC 20 μg per mice i.p. three times a week, vs control mice
Experimental: (B) U937 cells were mock-treated or treated with 5-AZA (5 μM), INEC (10 nM) or both for 72 hours. CD11b and CD14 expression was evaluated by flow cytometry. […] (C) HL60 cells were mock-treated or treated with 5-AZA (5 μM), with Vitamin D (300 nM) or INEC (10 nM) for 16 hours. Granocyte differentiation genes (PRTN3 and NE) and monocyte differentiation genes (TREML2 and SERPINB8) were accessed by qPCR. Results are presented as mean±SEM. (D) U937 cells were mock-treated or treated with 5-AZA (5 μM), INEC (10 nM) or both for 16 hours. VDR activation was evaluated by immunoblot using anti-phospho-VDR specific antibodies. VDR antibodies were used to control protein loading. […] (E) HL60 cells were mock-treated or treated with 5-AZA (5 μM), with INEC (10 nM) or both for 16 hours. Cell cycle analyses were performed by topro-3 labeling. Results are presented as mean±SEM. […] (F) Expression of cell cycle regulator genes p15, p21 and p27 was evaluated by qPCR. Results are presented as mean±SEM. (G) Kaplan-Meier plot of survival of mice treated with vehicle (PBS), 5-Acytidine (5 mg/kg intraperitoneally three times a week for five injections) and or INEC (20 μg per mice intraperitoneally, three time a week) after subcutaneous xenograft with U937 cells (n=8 tumors in each group). The p-value was determined using the log-rank test.
For tumor establishment, U937 or OCI-AML3 cells as indicated were mixed with Matrigel (BD Biosciences) (1:1, vol/vol) and injected subcutaneously (5×106/flank) into 10-week old female athymic Nude mice (Janvier laboratories, France). The mice were then injected i.p. with 5-Azacytidine (Celgene) (5 mg/kg on day 5, 7, 9, 11 and 13), Inecalcitol (Hybrigenics) (20 μg/day 3 times a week), and the combination of 5-Azacytidine and Inecalcitol or PBS as a vehicle control. The tumor growth was measured as previously described (Lepelletier 2007).

AML cells = test: Dose-response studies of AML cells differentiation; type: cell-based; conditions: compared with VD
[7] = system: FLT3-ITD-transformed bone marrow hematopoietic progenitors; test: Methylcellulose colony-forming and replating assay of FLT3-ITD transformed cells; type: cell-based, mouse
Experimental: (A) Inecalcitol decreases clonogenicity of FLT3-ITD of transformed cells. FLT3-ITD-transformed bone marrow hematopoietic progenitors were plated (30.000 cells/condition) in semisolid methylcellulose media containing cytokines (M-3434) containing or not INEC (10 nM) and scored following 7 to 10 days of culture. For re-plating assays 10-30.000 cells were plated (as indicated) in the presence or in the absence of INEC (10 nM) for each condition. Histograms represents numbers of colonies (mean±SEM of three independent experiments). Results are presented as mean±SEM of 4 independent experiments.
Colony formation by transformed or not mouse cells was examined with the use of Methocult medium (MethoCult GF M3434, StemCell Technologies). WT and VDR−/− cells infected were collected from BMT with oncogene or not and transferred to Methocult medium. Colonies were scored one week after plating for determination of the number of colonies. For serial plating cells were collected from methylcellulose, washed once in PBS, counted and replated in Methocult. For some experiments, 10 nM Inecalcitol (hybrigenics) was added to the culture medium.
LIC are a subset of leukemic cells in the bulk leukemia population bearing resistance to chemotherapy and therefore at the origin of relapses. Next we explored the efficacy of VDR agonist therapy in targeting LIC cells. To test this hypothesis we transduced bone marrow precursors from wild-type and VDR−/− mice with the FLT3-ITD construct. Cells were plated in semi-solid cultures containing INEC or vehicle as a control (FIG. 6A). […] To further examine is the INEC effect was reversible we divided 2nd replating INEC-treated cultures in two groups containing INEC or a vehicle.

FLT3-ITD/NPM1 AML blasts [8] = test: In vitro treatment of FLT3-ITD/NPM1 AML blasts, myeloid differentiation markers; type: cell-based
FLT3-ITD/NPM1 AML blasts [9] = test: Adoptive transfer of FLT3-ITD/NPM1 AML blasts and bone marrow cells in mice; type: in vivo, mouse
From the text: In agreement, biological as well as immunophenotypic markers of leukemia cells were normalized in INEC-treated animals (FIG. 6C).

[10] = system: β-catenin in OCI-AML3 cells; test: β-catenin expression by flow cytometry in OCI-AML3 cells; type: cell-based, human; conditions: INEC 10, 100 or 1000 nM, 48 hours

| SMILES | VDR promoter methylation (VDR promoter [1]) | VDR promoter methylation (MS-HRM) (VDR promoter [2]) | cell sensitivity (viability) [3] | cell survival [4] | expression of VDR targeted genes (CAMP and CYP24A1) ([5]; 5-AZA 5 μM or Vitamin D 1000 μM) | VDR expression, fold increase ([5]; 5-AZA 5 μM) | VDR-target genes expression [6] | increase in myeloid differentiation (CD11b and CD14 expression), fold increase compared to vehicle (U937 cells) | survival of xenografted mice (U937 cells xenograft) | tumor size / tumor growth (U937 cells xenograft) | effectiveness to promote AML cells differentiation relative to VD (AML cells) | CFC after INEC wash-out ([7]; 2nd replating INEC-treated cultures switched to vehicle) | decrease in clonogenic potential compared to vehicle-treated cells ([7]; INEC 10 nM in methylcellulose, first plating) | colonies at the 4th round of plating ([7]; INEC 10 nM, serial replating) | expression of myeloid differentiation markers (FLT3-ITD/NPM1 AML blasts [8]) | leukemia development after passive transfer of BM cells from treated animals (FLT3-ITD/NPM1 AML blasts [9]; in comparison to mock-treated animals) | biological and immunophenotypic markers of leukemia cells in treated animals (FLT3-ITD/NPM1 AML blasts [9]; mouse, in vivo) | leukemia development in mice adoptively transferred with treated cells (FLT3-ITD/NPM1 AML blasts [9]; mouse, in vivo) | β-catenin pathway / expression [10] |
| --- | --- | --- | --- | --- | --- | --- | --- | --- | --- | --- | --- | --- | --- | --- | --- | --- | --- | --- | --- |
| Nc1ncn([C@@H]2O[C@H](CO)[C@@H](O)[C@H]2O)c(=O)n1 [5-AZA, 5-azacytidine] | decrease in methylation | revert VDR promoter methylation | sensitive | not altered | induced the expression | 2 fold | induces VDR-target genes expression | 1.3 fold | did not observe a significant effect | did not observe a significant effect | – | – | – | – | – | – | – | – | – |
| C[C@H](CC#CC(C)(C)O)[C@H]1CC[C@@H]2/C(=C/C=C3C[C@@H](O)C[C@H](O)C3)CCC[C@@]21C [INEC, 19-nor-14-epi-23-yne-1,25-(OH)2D3] | – | – | – | – | – | – | – | 4.5 fold | did not observe a significant effect | did not observe a significant effect | 1000 fold | reestablished CFC | 5 fold | virtually no colonies | increased expression | strongly delayed leukemia development | normalized | not able to develop leukemia | inhibits β-cathenin pathway |
